Measured values as given in PMC12446476 (Nature Communications, 2025).
Where two headings read alike, the source gives them in different places.

System: N. gonorrhoeae
Experiment: MIC determination, Etest
Format: cell-based, Neisseria gonorrhoeae
Conditions: for MIC: Neisseria gonorrhoeae
Source text: The 2024 WHO N. gonorrhoeae reference strains were used for quality control. Only whole MIC doubling dilutions are reported. Clinical breakpoints or the epidemiological cutoff (ECOFF, to indicate azithromycin resistance) from EUCAST (v14.0, https://www.eucast.org/clinical_breakpoints) were used to classify isolates as antimicrobial susceptible or resistant. […] Two times the standard inoculum defined by CLSI was used to establish consistent growth in untreated control samples for some strains. In vitro time-kill assays were performed according to CLSI guidelines[65] using Columbia Broth (BD Difco) supplemented with 1% IsoVitaleX Enrichment (BD). Viable bacterial counts were generated by plating 10-fold serially diluted samples on GC agar plates containing 1% IsoVitaleX Enrichment (BD).

CC[C@H]1OC(=O)[C@H](C)[C@@H](O[C@H]2C[C@@](C)(OC)[C@@H](O)[C@H](C)O2)[C@H](C)[C@@H](O[C@@H]2O[C@H](C)C[C@H](N(C)C)[C@H]2O)[C@](C)(O)C[C@@H](C)CN(C)[C@H](C)[C@@H](O)[C@]1(C)O [Azithromycin]
< 256 µg/mL: MIC (WHO Q, Etest, read-out: MIC)
2 µg/mL: MIC (WHO S2, Etest, read-out: MIC)
0.032 µg/mL: MIC (comparator antibiotics, clinical N. gonorrhoeae isolate 18, Sweden 2023, read-out: Minimum inhibitory concentration) | MIC (comparator antibiotics, clinical N. gonorrhoeae isolate 38, Sweden 2023, read-out: Minimum inhibitory concentration) | MIC (comparator antibiotics, clinical N. gonorrhoeae isolate 42, Sweden 2023, read-out: Minimum inhibitory concentration) | MIC (comparator antibiotics, clinical N. gonorrhoeae isolate 46, Sweden 2023, read-out: Minimum inhibitory concentration)
0.25 µg/mL: MIC (WHO F, Etest, read-out: MIC) | MIC (WHO H, Etest, read-out: MIC) | MIC (comparator antibiotics, clinical N. gonorrhoeae isolate 1, Sweden 2023, read-out: Minimum inhibitory concentration) | MIC (comparator antibiotics, clinical N. gonorrhoeae isolate 3, Sweden 2023, read-out: Minimum inhibitory concentration) | MIC (comparator antibiotics, clinical N. gonorrhoeae isolate 9, Sweden 2023, read-out: Minimum inhibitory concentration) | MIC (comparator antibiotics, clinical N. gonorrhoeae isolate 11, Sweden 2023, read-out: Minimum inhibitory concentration) | MIC (comparator antibiotics, clinical N. gonorrhoeae isolate 15, Sweden 2023, read-out: Minimum inhibitory concentration) | MIC (comparator antibiotics, clinical N. gonorrhoeae isolate 16, Sweden 2023, read-out: Minimum inhibitory concentration) | MIC (comparator antibiotics, clinical N. gonorrhoeae isolate 17, Sweden 2023, read-out: Minimum inhibitory concentration) | MIC (comparator antibiotics, clinical N. gonorrhoeae isolate 19, Sweden 2023, read-out: Minimum inhibitory concentration) | MIC (comparator antibiotics, clinical N. gonorrhoeae isolate 24, Sweden 2023, read-out: Minimum inhibitory concentration) | MIC (comparator antibiotics, clinical N. gonorrhoeae isolate 26, Sweden 2023, read-out: Minimum inhibitory concentration) | MIC (comparator antibiotics, clinical N. gonorrhoeae isolate 29, Sweden 2023, read-out: Minimum inhibitory concentration) | MIC (comparator antibiotics, clinical N. gonorrhoeae isolate 35, Sweden 2023, read-out: Minimum inhibitory concentration) | MIC (comparator antibiotics, clinical N. gonorrhoeae isolate 41, Sweden 2023, read-out: Minimum inhibitory concentration)
0.016 µg/mL: MIC (comparator antibiotics, clinical N. gonorrhoeae isolate 28, Sweden 2023, read-out: Minimum inhibitory concentration)
0.5 µg/mL: MIC (WHO K, Etest, read-out: MIC) | MIC (WHO M, Etest, read-out: MIC) | MIC (WHO O, Etest, read-out: MIC) | MIC (WHO R, Etest, read-out: MIC) | MIC (WHO X, Etest, read-out: MIC) | MIC (comparator antibiotics, clinical N. gonorrhoeae isolate 4, Sweden 2023, read-out: Minimum inhibitory concentration) | MIC (comparator antibiotics, clinical N. gonorrhoeae isolate 20, Sweden 2023, read-out: Minimum inhibitory concentration) | MIC (comparator antibiotics, clinical N. gonorrhoeae isolate 21, Sweden 2023, read-out: Minimum inhibitory concentration) | MIC (comparator antibiotics, clinical N. gonorrhoeae isolate 36, Sweden 2023, read-out: Minimum inhibitory concentration) | MIC (comparator antibiotics, clinical N. gonorrhoeae isolate 43, Sweden 2023, read-out: Minimum inhibitory concentration) | MIC (comparator antibiotics, clinical N. gonorrhoeae isolate 44, Sweden 2023, read-out: Minimum inhibitory concentration) | MIC (comparator antibiotics, clinical N. gonorrhoeae isolate 49, Sweden 2023, read-out: Minimum inhibitory concentration)
1 µg/mL: MIC (WHO L, Etest, read-out: MIC) | MIC (WHO Y, Etest, read-out: MIC) | MIC (WHO Z, Etest, read-out: MIC)
0.125 µg/mL: MIC (comparator antibiotics, clinical N. gonorrhoeae isolate 2, Sweden 2023, read-out: Minimum inhibitory concentration) | MIC (comparator antibiotics, clinical N. gonorrhoeae isolate 7, Sweden 2023, read-out: Minimum inhibitory concentration) | MIC (comparator antibiotics, clinical N. gonorrhoeae isolate 10, Sweden 2023, read-out: Minimum inhibitory concentration) | MIC (comparator antibiotics, clinical N. gonorrhoeae isolate 12, Sweden 2023, read-out: Minimum inhibitory concentration) | MIC (comparator antibiotics, clinical N. gonorrhoeae isolate 22, Sweden 2023, read-out: Minimum inhibitory concentration) | MIC (comparator antibiotics, clinical N. gonorrhoeae isolate 23, Sweden 2023, read-out: Minimum inhibitory concentration) | MIC (comparator antibiotics, clinical N. gonorrhoeae isolate 27, Sweden 2023, read-out: Minimum inhibitory concentration) | MIC (comparator antibiotics, clinical N. gonorrhoeae isolate 30, Sweden 2023, read-out: Minimum inhibitory concentration) | MIC (comparator antibiotics, clinical N. gonorrhoeae isolate 33, Sweden 2023, read-out: Minimum inhibitory concentration) | MIC (comparator antibiotics, clinical N. gonorrhoeae isolate 34, Sweden 2023, read-out: Minimum inhibitory concentration) | MIC (comparator antibiotics, clinical N. gonorrhoeae isolate 37, Sweden 2023, read-out: Minimum inhibitory concentration) | MIC (comparator antibiotics, clinical N. gonorrhoeae isolate 39, Sweden 2023, read-out: Minimum inhibitory concentration) | MIC (comparator antibiotics, clinical N. gonorrhoeae isolate 47, Sweden 2023, read-out: Minimum inhibitory concentration) | MIC (comparator antibiotics, clinical N. gonorrhoeae isolate 48, Sweden 2023, read-out: Minimum inhibitory concentration)
0.064 µg/mL: MIC (comparator antibiotics, clinical N. gonorrhoeae isolate 5, Sweden 2023, read-out: Minimum inhibitory concentration) | MIC (comparator antibiotics, clinical N. gonorrhoeae isolate 6, Sweden 2023, read-out: Minimum inhibitory concentration) | MIC (comparator antibiotics, clinical N. gonorrhoeae isolate 8, Sweden 2023, read-out: Minimum inhibitory concentration) | MIC (comparator antibiotics, clinical N. gonorrhoeae isolate 13, Sweden 2023, read-out: Minimum inhibitory concentration) | MIC (comparator antibiotics, clinical N. gonorrhoeae isolate 14, Sweden 2023, read-out: Minimum inhibitory concentration) | MIC (comparator antibiotics, clinical N. gonorrhoeae isolate 25, Sweden 2023, read-out: Minimum inhibitory concentration) | MIC (comparator antibiotics, clinical N. gonorrhoeae isolate 31, Sweden 2023, read-out: Minimum inhibitory concentration) | MIC (comparator antibiotics, clinical N. gonorrhoeae isolate 32, Sweden 2023, read-out: Minimum inhibitory concentration) | MIC (comparator antibiotics, clinical N. gonorrhoeae isolate 40, Sweden 2023, read-out: Minimum inhibitory concentration) | MIC (comparator antibiotics, clinical N. gonorrhoeae isolate 45, Sweden 2023, read-out: Minimum inhibitory concentration)
4 µg/mL: MIC (WHO P, Etest, read-out: MIC) | MIC (WHO U, Etest, read-out: MIC)
> 256 µg/mL: MIC (WHO V, Etest, read-out: MIC)
2%: percent of isolates resistant (100 contemporary clinical N. gonorrhoeae isolates, EUCAST)
